# Where “and” joins values, the source holds several entries; their conditions need not be identical. Equal values may be shown once. Read-outs that look alike come from different tables or passages of the source.
# Columns and labels:
# [1] = Critical aggregation concentration (CAC) by surface tension; assay type: physicochemical; settings: in water
# Protocol: The CACs of the ILs were determined by measuring the surface tension (Tensiometer du Nouy, Force Tensiometer K6 from KRÜSS (GmbH)) of aqueous solutions with increasing IL concentrations. Milli-Q H2O was used as a reference, with γ equal to 71 ± 1.3 mN/m at 25 ± 2 °C (Dortmund databank reference, 71.5 ± 0.5 mN/m 24 ± 1.4 °C). Surface tension values were plotted vs. logarithms of the ILs’ concentrations, linear fits were applied to the data points, and CAC was determined as the intersection of the two linear fits relative to the initial surface tension depression and the further plateau.
# [2] = IL aggregates' size and zeta potential in aqueous solutions (DLS, Zetasizer); assay type: physicochemical
# Protocol: The size distribution and zeta potential values of the ILs’ aggregates in aqueous solutions were evaluated by using a Zetasizer Nano ZS (Malvern) at 25 °C. The samples were prepared by adding an excess of either DIA or Rhe (5 mg/mL) to the aqueous IL solutions, incubating them for 30 min at 25 °C, and finally removing the excess drugs by centrifugation. […] In contrast, for PB solutions, the solutions were prepared in water, and […] of 100 mM pH 7 phosphate buffer was added per 1 mL of aqueous solution, directly in the cuvette, before the dynamic light scattering (DLS) analysis started. The concentrations of the solubilised drug were determined by UV–Vis analysis.
# [3] = test system: type II porcine gastric mucin; assay: Mucoadhesion by microrheological method; assay type: physicochemical
# Protocol: The measurements were performed using the Zetasizer Nano ZS instrument, as previously reported. The microrheological characterisation of the ILs was performed using type II porcine gastric mucin. Porcine gastric mucin was used because no ocular mucins were available, and as it has already been used for ocular models. Briefly, a 3 mg/mL suspension of type II porcine gastric mucin was prepared in Milli-Q water and filtered through 0.45 µm cellulose acetate filters. Next, 0.27 M and 0.20 M solutions of both ionic liquids in deionised water were prepared (corresponding to concentrations 15% higher and lower than the CAC, respectively). One millilitre of each sample to be tested had the following composition: 5 µL of tracer (latex polystyrene particles, diameter 500 nm, Beckman), 7.38 mg/mL of IL solution, 0.3 mg of mucin, and 8.1 mg/mL of 5% NaCl. As a reference, 1 mL of sample was prepared with the same composition but without the ILs. All measurements were carried out in triplicate.
# [4] = test system: BALB/3T3 clone A31 fibroblast cells; assay: Cytotoxicity screening (WST-1); assay type: cell-based, murine; settings: Mus musculus, 4 h incubation, read-out: IC50 of cell viability
# Protocol: BALB/3T3 clone A31 fibroblast cells were grown in Dulbecco’s Modified Eagle Medium (DMEM), supplemented with 2 mM L-glutamine, 1% penicillin/streptomycin, and 10% bovine calf serum. Cells were grown in a CO2 incubator (Heracell 150i series) at 37 °C and 5% CO2, with cells sub-cultured at 80–90% confluency. The cell monolayers were rinsed with PBS and treated with trypsin–EDTA to detach the cells before their resuspension in fresh media. A subconfluent monolayer of BALB/3T3 clone A31 fibroblast cells was trypsinised, centrifuged at 1000 rpm for 5 min, resuspended in growth medium, and counted.
# A cytotoxicity screening was carried out for both ILs (range […]), as well as DIA and Rhe (0.5–200 mg/mL). Briefly, BALB/3T3 clone A31 fibroblast cells were seeded in each well of 96-well plates at a seeding density of 6 × 10^3 cells/well for 24 h, until 60–70% confluence was reached. After 24 h, the medium was then removed from each well and replaced with DMEM containing the samples.
# After 4 h of incubation, the media were removed, replaced with fresh medium containing 10% WST-1 reagent solution, and maintained for 4 h at 37° C with 5% CO2. Afterwards, formazan dye absorbance was quantified at 450 nm with the reference wavelength at 655 nm by using a multilabel reader (BioTek 800/TS, Thermo Scientific).
# S. aureus W4 = assay: Killing assay; assay type: cell-based, Staphylococcus aureus; settings: 3 h incubation in 5% TSB, ILs 0.27 M
# Protocol: (§1) To this end, the bacterial strains were grown in TSB until the exponential phase, and approximately 5 × 10^4 CFU/mL-contained in 10 μL-was added to 5 μL of TSB, 35 μL of water, and 50 μL of one of the following solutions corresponding to the eye drop compositions tested in vivo: Bet6 or Carn6 with 0.27 M or 0.34 M DIA, plain DIA (0.34 M) solution, or plain Bet6/plain Carn6, both at 0.27 M. All solutions were prepared in CB. The samples were incubated at 37 °C with shaking for 3 h. A sample containing 0.6% DMSO (corresponding to the highest concentration of DMSO tested) was used as a control. Following incubation, the samples were diluted 10-fold in LB and plated on tryptone soy agar (TSA, Oxoid) to determine the number of CFU. Bactericidal activity was defined as a reduction of at least 3 Log10 in the number of viable bacteria as compared to the inoculum.
# P. aeruginosa ATCC 27853 = assay: Killing assay; assay type: cell-based, Pseudomonas aeruginosa; settings: 3 h incubation in 5% TSB, ILs 0.27 M
# Protocol: as §1
# [5] = IL 180 μg/mL, DIA + (saturation), CB pH5
# [6] = IL 180 μg/mL, Rhe + (saturation), PB pH7
# [7] = IL 200 μg/mL, DIA + (saturation), CB pH5
# [8] = IL 200 μg/mL, DIA + (saturation), H2O pH4
# [9] = IL 200 μg/mL, Rhe + (saturation), H2O pH4
smiles,measurement,setting,value
"CCCCCCOC(=O)C[N+](C)(C)C.[Br-] [Bet6, (2-hexyloxy-2-oxoethyl)-trimethylammonium bromide]",surface tension at the CAC (σ),[1],34.2 mN/m
same,critical aggregation concentration (CAC),[1]; via surface tension,0.227 M and 0.227 ± 0.016 M
same,PDI,"[2]; IL 90 μg/mL, no drug, H2O pH4",0.01 ± 0.002
same,Ø (aggregates size),"[2]; IL 90 μg/mL, no drug, H2O pH4",0.80 ± 0.03 nm
same,PDI,"[2]; IL 105 μg/mL, no drug, H2O pH4",0.01 ± 0.005
same,Ø (aggregates size),"[2]; IL 105 μg/mL, no drug, H2O pH4",0.96 ±0.07 nm
same,PDI,"[2]; IL 170 μg/mL, no drug, H2O pH4",0.01 ± 0.005
same,Ø (aggregates size),"[2]; IL 170 μg/mL, no drug, H2O pH4",1.96 ± 0.30 nm
same,PDI,[2]; [5],0.01 ± 0.005
same,Ø (aggregates size),[2]; [5],1.73 ± 0.40 nm
same,ζ (zeta potential),[2]; [5],2.82 ± 1.17 mV
same,PDI,[2]; [6],0.03 ± 0.005
same,Ø (aggregates size),[2]; [6],1.71 ± 0.49 nm
same,ζ (zeta potential),[2]; [6],5.77 ± 0.54 mV
same,PDI,"[2]; IL 180 μg/mL, no drug, CB pH5",0.01 ± 0.005
same,Ø (aggregates size),"[2]; IL 180 μg/mL, no drug, CB pH5",1.76 ± 0.38 nm
same,ζ (zeta potential),"[2]; IL 180 μg/mL, no drug, CB pH5",0.65 ± 0.53 mV
same,PDI,"[2]; IL 180 μg/mL, no drug, PB pH7",0.01 ± 0.005
same,Ø (aggregates size),"[2]; IL 180 μg/mL, no drug, PB pH7",1.79 ± 0.41 nm
same,ζ (zeta potential),"[2]; IL 180 μg/mL, no drug, PB pH7",8.93 ± 0.94 mV
same,PDI,[2]; [7],0.02 ± 0.005
same,Ø (aggregates size),[2]; [7],2.01 ± 0.60 nm
same,ζ (zeta potential),[2]; [7],0.16 ± 1.85 mV
same,PDI,[2]; [8],0.02 ± 0.005
same,Ø (aggregates size),[2]; [8],1.69 ± 0.92 nm
same,ζ (zeta potential),[2]; [8],9.53 ± 1.68 mV
same,PDI,[2]; [9],0.01 ±0.005
same,Ø (aggregates size),[2]; [9],1.63 ± 0.21 nm
same,ζ (zeta potential),[2]; [9],8.17 ± 0.94 mV
same,PDI,"[2]; IL 200 μg/mL, no drug, CB pH5",0.03 ± 0.005
same,Ø (aggregates size),"[2]; IL 200 μg/mL, no drug, CB pH5",1.97 ± 0.44 nm
same,ζ (zeta potential),"[2]; IL 200 μg/mL, no drug, CB pH5",2.62 ± 0.96 mV
same,PDI,"[2]; IL 200 μg/mL, no drug, H2O pH4",0.01 ± 0.005
same,Ø (aggregates size),"[2]; IL 200 μg/mL, no drug, H2O pH4",1.81 ± 0.41 nm
same,ζ (zeta potential),"[2]; IL 200 μg/mL, no drug, H2O pH4",13.70 ± 1.60 mV
same,Relative Viscosity,[3]; mucin with IL at 0.20 M (lower than CAC),0.79 ± 0.01 cP
same,Relative Viscosity,[3]; mucin with IL at 0.27 M (higher than CAC),1.32 ± 0.13 cP
same,IC50,[4],7500 µg/mL
same,IC50,[4]; murine fibroblasts,26.8 mM
same,bactericidal effect,S. aureus W4; DIA 0.34 M,strong bactericidal effect
same,CFU after treatment (limit of detection),S. aureus W4; DIA 0.34 M if loaded,< 100 CFU/mL
same,bactericidal effect,P. aeruginosa ATCC 27853; DIA 0.34 M,strong bactericidal effect
same,CFU after treatment (limit of detection),P. aeruginosa ATCC 27853; DIA 0.34 M if loaded,< 100 CFU/mL
